The target in one assay is GBP (Escherichia coli, UniProt P0AEE5). The conditions noted are these: Miller et al. 1983; read-out: dissociation constants, Kd; cited from earlier work.
Another assay deals with GBP labeled with D-22 (Escherichia coli, UniProt P0AEE5). The experiment in a line: Steady-state fluorescence of D-22-labeled (dansylated) GBP. In kind it is binding, E. coli. The conditions noted are these: addition of 1.6×10^−4 M sugar; protein to fluorophore 1:50, 1:100, 1:200. The procedure:
Labeling GBP with D-22. GBP was dialysed three times against 0.1 M NaHCO3, pH 9.0. Three conjugation reactions with protein to fluorophore mole ratios of 1:50, 1:100, and 1:200 were carried out. Three microvials, each containing GBP, were placed in an ice bath. The fluorophore was added to the vials in small increments while the solution was being stirred. The mixture was allowed to react in the dark at 4° C. for 1 h. To eliminate the excess of unbound D-22, size exclusion chromatography was employed. A D-Salt Polyacrylamide 6000 desalting column was equilibrated with 10 mM Tris-HCl, pH 8.0. The conjugates were loaded onto the column. Elution of the labeled protein was conducted with the equilibration buffer and the conjugate finally dialysed three times against 10 mM Tris-HCl, pH 8.0.
Steady-state fluorescence studies of the labeled GBP. Fluorescence measurements were conducted with sample volumes of 1.5 mL and in quartz cuvettes. After the addition of 30 μL of D-(+)-galactose and D-(+)-glucose to the conjugate, the solution was allowed to incubate for 15 min at 4° C. while mixing at 400 rpm. The excitation and emission monochromator slit widths were set at 2 mm. The excitation wavelength was 350 nm and emission was detected at 475 nm.

Assay [1] addresses GBP mutant M182C (Met182Cys) (Escherichia coli, UniProt P0AEE5, M205C). Briefly: Steady-state fluorescence of fluorophore-labeled GBP mutant M182C on ligand binding. Details: species or system E. coli. The method, then:
Labeling the mutants of GBP with fluorescent probes. The mutant protein was first dialysed three times against either 10 mM Tris-HCl, 1 mM DTT, 0.2 mM CaCl2, pH 8.0 (for reaction with MDCC) or 10 mM HEPES, 1 mM DTT, 0.2 mM CaCl2, pH 7.4 (for reaction with acrylodan, 1,5-IAEDANS, or IANBD ester). DTT was present in the buffers to reduce any disulfide linkages that may have formed between two protein molecules. The protein was then dialysed three times against the respective buffers (with no DTT) to remove excess of the reducing agent. For the conjugation reaction, a molar ratio of fluorophore to protein of 5:1 was employed. The fluorophores were added slowly to the mutants of GBP (μM concentrations) so as to allow the cysteine residue on all the protein molecules to have an equal opportunity to react with the fluorophore. The solution was stirred constantly in a glass reaction vessel and in the dark for 4 h at 4° C. […]
Steady-state fluorescence studies of the fluorophore-labeled mutant proteins. […] The concentrations of labeled proteins used in the steady-state fluorescence studies were in the 1×10^−7 M range. […] The samples were analyzed in the spectrofluorometer under the aforementioned parameters. Calibration plots were obtained by relating the average fluorescence change with the concentration of glucose or galactose in the sample.

Assay [2] has as its target GBP mutant H152C (His152Cys) (Escherichia coli, UniProt P0AEE5, H175C). It is filed as binding, E. coli. The method, then:
(§1) Labeling the mutants of GBP with fluorescent probes. The mutant protein was first dialysed three times against either 10 mM Tris-HCl, 1 mM DTT, 0.2 mM CaCl2, pH 8.0 (for reaction with MDCC) or 10 mM HEPES, 1 mM DTT, 0.2 mM CaCl2, pH 7.4 (for reaction with acrylodan, 1,5-IAEDANS, or IANBD ester). DTT was present in the buffers to reduce any disulfide linkages that may have formed between two protein molecules. The protein was then dialysed three times against the respective buffers (with no DTT) to remove excess of the reducing agent. For the conjugation reaction, a molar ratio of fluorophore to protein of 5:1 was employed. The fluorophores were added slowly to the mutants of GBP (μM concentrations) so as to allow the cysteine residue on all the protein molecules to have an equal opportunity to react with the fluorophore. The solution was stirred constantly in a glass reaction vessel and in the dark for 4 h at 4° C. (with MDCC and acrylodan) or for 2-3 h at RT (with 1,5-IAEDANS or IANBD ester). The conjugated protein was separated from the free fluorophore by running the sample through a Sephadex G-25 column and eluting with the respective buffer.
(§2) Steady-state fluorescence studies of the fluorophore-labeled mutant proteins. The excitation and emission monochromator slit widths were both set at 2 mm. The excitation and emission wavelengths for MDCC, acrylodan, 1,5-IAEDANS, and IANBD ester were 425 nm and 475 nm, 382 nm and 509 nm, 336 nm and 490 nm, and 472 nm and 536 nm, respectively. All data were obtained at RT using quartz cuvettes with sample volumes of 1.5-2 mL. The concentrations of labeled proteins used in the steady-state fluorescence studies were in the 1×10^−7 M range. The conjugates were incubated with various concentrations of glucose and galactose for 15-20 min at RT on a shaker at 400 rpm. The samples were analyzed in the spectrofluorometer under the aforementioned parameters. Calibration plots were obtained by relating the average fluorescence change with the concentration of glucose or galactose in the sample.

Assay [3] has as its target GBP mutant G148C (Gly148Cys) (Escherichia coli, UniProt P0AEE5, G171C). In kind it is binding, E. coli. The method, then:
as §1, §2

Assay [4] addresses calcium binding site of GBP (Escherichia coli, UniProt P0AEE5). The conditions noted are these: Vyas et al. 1989, cited from earlier work.

Like-named read-outs stand apart in the source and are kept apart here.

calcium binding site of GBP, sequence (P0AEE5 24-332 limits assumed): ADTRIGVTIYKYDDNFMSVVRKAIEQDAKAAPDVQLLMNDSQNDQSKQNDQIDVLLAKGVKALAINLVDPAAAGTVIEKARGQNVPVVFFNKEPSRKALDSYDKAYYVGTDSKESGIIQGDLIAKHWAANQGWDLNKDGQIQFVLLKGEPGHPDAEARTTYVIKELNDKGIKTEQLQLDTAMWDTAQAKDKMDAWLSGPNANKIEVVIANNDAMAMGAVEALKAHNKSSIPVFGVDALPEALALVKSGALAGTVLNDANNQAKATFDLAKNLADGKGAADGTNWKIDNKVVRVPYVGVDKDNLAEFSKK
GBP mutant G148C (Gly148Cys), sequence (P0AEE5 24-332 G171C limits assumed): as the sequence (P0AEE5 24-332 limits assumed) above, with G148C counted along it
GBP mutant M182C (Met182Cys), sequence (P0AEE5 24-332 M205C): as the sequence (P0AEE5 24-332 limits assumed) above, with M182C counted along it
GBP mutant H152C (His152Cys), sequence (P0AEE5 24-332 H175C limits assumed): as the sequence (P0AEE5 24-332 limits assumed) above, with H152C counted along it
GBP, sequence (P0AEE5 24-332): as the sequence (P0AEE5 24-332 limits assumed) above
GBP labeled with D-22, sequence (P0AEE5 24-332 limits assumed): as above

Turning to `O=C[C@H](O)[C@@H](O)[C@@H](O)[C@H](O)CO` [Galactose, D-(+)-galactose], the Kd on GBP was 400 µM. In addition, the “change of fluorescence signal of dansylated GBP” value at GBP labeled with D-22 is “quenching of the fluorescence signal”. Further, the “% quenching” value was 5% in assay [1] (M182C labeled with Acrylodan); 6% in assay [1] (M182C labeled with MDCC); 4% in assay [2] (H152C labeled with IANBD); 19% in assay [2] (H152C labeled with MDCC); 7% in assay [3] (G148C labeled with IAEDANS); 16% in assay [3] (G148C labeled with MDCC).

Consider `[Tb+3]` [terbium], for which the dissociation rate in assay [4] was 0.001 s⁻¹.

For `[Ca+2]` [calcium], the Kd in assay [4] (read-out: dissociation constant) was 2 µM.

The record behind these values is US20030232383A1, “Novel reagentless sensing system for measuring carbohydrates based on the galactose/glucose binding protein” (priority 2001, published 2003).
